Measurements from the NIST ThermoML archive (doi:10.1021/je1002829).

Assay: xn = mol fraction of the nth substance listed
Details: for mass density: 101 kPa, Liquid, Pycnometric method

CCCCCC(=O)O [hexanoic acid] + O
Details | mass density, 293.15 K [kg/m3] | mass density, 298.15 K [kg/m3] | mass density, 303.15 K [kg/m3] | mass density, 308.15 K [kg/m3] | surface tension liquid-gas, 293.15 K [mN/m] | surface tension liquid-gas, 298.15 K [mN/m] | surface tension liquid-gas, 303.15 K [mN/m] | surface tension liquid-gas, 308.15 K [mN/m]
x1 = 8e-05 | – | – | – | – | 63.26 | 62.69 | 62.67 | 62.16
x1 = 0.00015 | 998.24 | 997.08 | 995.67 | 994.07 | – | – | – | –
x1 = 0.00016 | – | – | – | – | 56.6 | 56.02 | 56.09 | 56.02
x1 = 0.00023 | – | – | – | – | 52.29 | 51.8 | 51.81 | 51.94
x1 = 0.00032 | – | – | – | – | 48.25 | 47.98 | 47.93 | 48.06
x1 = 0.00037 | – | – | – | – | 46.55 | 46.17 | 45.98 | 46.29
x1 = 0.00043 | 998.28 | 997.12 | 995.68 | 994.07 | – | – | – | –
x1 = 0.00046 | – | – | – | – | 44.03 | 43.54 | 43.22 | 43.67
x1 = 0.00051 | – | – | – | – | 42.83 | 42.62 | 42.44 | 42.6
x1 = 0.0006 | 998.31 | 997.14 | 995.72 | 994.09 | – | – | – | –
x1 = 0.00062 | – | – | – | – | 40.57 | 40.6 | 40.57 | 40.45
x1 = 0.00069 | – | – | – | – | 39.19 | 39.02 | 38.98 | 38.89
x1 = 0.00077 | – | – | – | – | 37.72 | 37.36 | 37.36 | 37.2
x1 = 0.00084 | – | – | – | – | 36.64 | 36.28 | 36.21 | 36.07
x1 = 0.00091 | – | – | – | – | 35.66 | 35.23 | 35.04 | 34.96
x1 = 0.00106 | 998.36 | 997.18 | 995.77 | 994.1 | – | – | – | –
x1 = 0.0011 | – | – | – | – | 33.79 | 33.17 | 32.82 | 32.46
x1 = 0.00115 | – | – | – | – | 33.55 | 32.94 | 32.57 | 32.11
x1 = 0.00143 | 998.42 | 997.22 | 995.77 | 994.12 | – | – | – | –
x1 = 0.00148 | 998.43 | 997.23 | 995.79 | 994.12 | – | – | – | –
x1 = 0.0018 | 998.47 | 997.25 | 995.81 | 994.13 | – | – | – | –
x1 = 0.00195 | 998.49 | 997.28 | 995.82 | 994.15 | – | – | – | –
x1 = 0.00205 | 998.5 | 997.29 | 995.83 | 994.14 | – | – | – | –
x1 = 0.00222 | 998.52 | 997.29 | 995.83 | 994.16 | – | – | – | –
x1 = 0.00228 | 998.54 | 997.31 | 995.84 | 994.16 | – | – | – | –
x1 = 0.0025 | 998.56 | 997.33 | 995.86 | 994.18 | – | – | – | –
x1 = 0.00271 | 998.58 | 997.35 | 995.88 | 994.19 | – | – | – | –
x1 = 0.00289 | 998.62 | 997.37 | 995.89 | 994.19 | – | – | – | –
x1 = 0.00305 | 998.63 | 997.4 | 995.91 | 994.21 | – | – | – | –
x1 = 0.0035 | 998.69 | 997.43 | 995.94 | 994.23 | – | – | – | –

CCCCC(=O)O [pentanoic acid] + O
Details | mass density, 293.15 K [kg/m3] | mass density, 298.15 K [kg/m3] | mass density, 303.15 K [kg/m3] | mass density, 308.15 K [kg/m3] | surface tension liquid-gas, 293.15 K [mN/m] | surface tension liquid-gas, 298.15 K [mN/m] | surface tension liquid-gas, 303.15 K [mN/m] | surface tension liquid-gas, 308.15 K [mN/m]
x1 = 0.00015 | 998.24 | 997.08 | 995.67 | 994.07 | – | – | – | –
x1 = 0.00016 | – | – | – | – | 63.92 | 64.63 | 63.6 | 63.01
x1 = 0.00043 | 998.28 | 997.12 | 995.68 | 994.07 | – | – | – | –
x1 = 0.00048 | – | – | – | – | 57.45 | 57.4 | 56.82 | 56.37
x1 = 0.00056 | – | – | – | – | 56.19 | 56.09 | 55.49 | 55.07
x1 = 0.0006 | 998.31 | 997.14 | 995.72 | 994.09 | – | – | – | –
x1 = 0.00083 | – | – | – | – | 52.45 | 52.12 | 51.63 | 51.27
x1 = 0.00099 | – | – | – | – | 50.54 | 50.05 | 49.71 | 49.38
x1 = 0.00106 | 998.36 | 997.18 | 995.77 | 994.1 | – | – | – | –
x1 = 0.00121 | – | – | – | – | 48.25 | 47.66 | 47.43 | 47.13
x1 = 0.00143 | 998.42 | 997.22 | 995.77 | 994.12 | – | – | – | –
x1 = 0.00148 | 998.43 | 997.23 | 995.79 | 994.12 | – | – | – | –
x1 = 0.0015 | – | – | – | – | 45.82 | 45.32 | 44.93 | 44.64
x1 = 0.00173 | – | – | – | – | 44.26 | 43.88 | 43.28 | 43
x1 = 0.0018 | 998.47 | 997.25 | 995.81 | 994.13 | – | – | – | –
x1 = 0.00195 | 998.49 | 997.28 | 995.82 | 994.15 | – | – | – | –
x1 = 0.00196 | – | – | – | – | 42.94 | 42.57 | 41.86 | 41.59
x1 = 0.00205 | 998.5 | 997.29 | 995.83 | 994.14 | – | – | – | –
x1 = 0.00219 | – | – | – | – | 41.78 | 41.26 | 40.63 | 40.36
x1 = 0.00222 | 998.52 | 997.29 | 995.83 | 994.16 | – | – | – | –
x1 = 0.00228 | 998.54 | 997.31 | 995.84 | 994.16 | – | – | – | –
x1 = 0.0025 | 998.56 | 997.33 | 995.86 | 994.18 | – | – | – | –
x1 = 0.00259 | – | – | – | – | 39.97 | 39.16 | 38.8 | 38.54
x1 = 0.00271 | 998.58 | 997.35 | 995.88 | 994.19 | – | – | – | –
x1 = 0.00283 | – | – | – | – | 38.97 | 38.18 | 37.81 | 37.57
x1 = 0.00289 | 998.62 | 997.37 | 995.89 | 994.19 | – | – | – | –
x1 = 0.00299 | – | – | – | – | 38.32 | 37.6 | 37.18 | 36.94
x1 = 0.00305 | 998.63 | 997.4 | 995.91 | 994.21 | – | – | – | –
x1 = 0.00326 | – | – | – | – | 37.25 | 36.51 | 36.1 | 35.9
x1 = 0.00349 | – | – | – | – | 36.38 | 35.61 | 35.15 | 34.97
x1 = 0.0035 | 998.69 | 997.43 | 995.94 | 994.23 | – | – | – | –
